Measured values taken from PubChem BioAssay AID206 (DTP/NCI, 2004).
Several values for one entry are separate records, joined by “and”; a condition that tells them apart may be missing. Identical values can stand only once. Results filed as inconclusive are left out.

Test system: nude mice, HT29 intrarenal xenograft, tumor weight T/C
Experiment: NCI In Vivo Anticancer Drug Screen. Data for tumor model HT29;CX-1 Human Adenocarcinoma (MER+) (intrarenal inoculation) in NU/NU Swiss (nude) mice
Conditions: endpoint: mean tumor weight change, higher = larger tumour
Method in brief: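 Endpoint measured as tumor size or survival; ratio reported is treated group over vehicle controls.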

COCC1OC2OC3C(COC)OC(OC4C(COC)OC(OC5C(COC)OC(OC6C(COC)OC(OC7C(COC)OC(OC8C(COC)OC(OC1C(O)C2O)C(O)C8O)C(O)C7O)C(O)C6O)C(O)C5O)C(O)C4O)C(O)C3O (configuration not stated) (tested in a mixture with another compound)
T/C (dose: 100.0 mg/kg/injection, schedule: Q04DX004 (sc), vehicle: Klucel (hydroxypropylcellulose) (HPC)): 116 % of control | T/C (dose: 200.0 mg/kg/injection, schedule: Q04DX004 (sc), vehicle: Klucel (hydroxypropylcellulose) (HPC)): 67 % of control

N/C=N/O
T/C (dose: 400.0 mg/kg/injection, schedule: Q01DX010 (sc), vehicle: saline): 111 % of control

CCCCCC(O)C1C(=O)OC(C)C(O)/C=C/C=C/C=C/C=C\C=C(\C)C(O)CC(O)CC(O)CC(O)CC(O)CC(O)CC1O (configuration not stated)
T/C (dose: 37.5 mg/kg/injection, schedule: Q04DX004 (sc), vehicle: distilled water + alcohol): 73 % of control | T/C (dose: 75.0 mg/kg/injection, schedule: Q04DX004 (sc), vehicle: distilled water + alcohol): 110 % of control | T/C (dose: 150.0 mg/kg/injection, schedule: Q04DX004 (sc), vehicle: distilled water + alcohol): 107 % of control

CC(Cc1ccc(O)c(O)c1)C(C)Cc1ccc(O)c(O)c1 (configuration not stated)
T/C (dose: 600.0 mg/kg/injection, schedule: Q04DX004 (sc), vehicle: saline + alcohol): 68 % of control | T/C (dose: 900.0 mg/kg/injection, schedule: Q04DX004 (sc), vehicle: saline + alcohol): 102 % of control | T/C (dose: 1800.0 mg/kg/injection, schedule: Q04DX004 (sc), vehicle: saline + alcohol): 97 % of control

CC1(C)CC23C4COC(=O)C2CCC1C3CC4=O (configuration not stated)
T/C (dose: 25.0 mg/kg/injection, schedule: Q04DX004 (sc), vehicle: DMSO): 56 % of control | T/C (dose: 50.0 mg/kg/injection, schedule: Q04DX004 (sc), vehicle: DMSO): 106 % of control | T/C (dose: 100.0 mg/kg/injection, schedule: Q04DX004 (sc), vehicle: DMSO): 103 % of control | T/C (dose: 300.0 mg/kg/injection, schedule: Q04DX004 (sc), vehicle: DMSO): 56 % of control | T/C (dose: 600.0 mg/kg/injection, schedule: Q04DX004 (sc), vehicle: DMSO): 64 % of control | T/C (dose: 1200.0 mg/kg/injection, schedule: Q04DX004 (sc), vehicle: DMSO): 88 % of control | T/C (dose: 2400.0 mg/kg/injection, schedule: Q04DX004 (sc), vehicle: DMSO): 114 % of control

CN1C(=O)C(=Cc2ccc(O)cc2)C(=O)N(C)C1=O
T/C (dose: 150.0 mg/kg/injection, schedule: Q04DX004 (sc), vehicle: saline with Tween-80): 116 % of control | T/C (dose: 300.0 mg/kg/injection, schedule: Q04DX004 (sc), vehicle: saline with Tween-80): 101 % of control | T/C (dose: 600.0 mg/kg/injection, schedule: Q04DX004 (sc), vehicle: saline with Tween-80): 99 % of control | T/C (dose: 1200.0 mg/kg/injection, schedule: Q04DX004 (sc), vehicle: saline with Tween-80): 74 % of control

C[C@@](O)(/C=C/[C@H]1CC=CC(=O)O1)[C@@H](C[C@@H](O)\C=C/C=C\C=C\CO)OP(=O)(O)O
T/C (dose: 9.38 mg/kg/injection, schedule: Q04DX004 (sc), vehicle: saline): 76 % of control | T/C (dose: 18.75 mg/kg/injection, schedule: Q04DX004 (sc), vehicle: saline): 102 % of control | T/C (dose: 37.5 mg/kg/injection, schedule: Q04DX004 (sc), vehicle: saline): 72 % of control

COc1cccc2c1C(=O)c1c(O)c3c(c(O)c1C2=O)C[C@@](O)(C(=O)CO)C[C@@H]3OC1CC(N)C(OC)C(C)O1 (some centres not stated)
T/C (dose: 3.13 mg/kg/injection, schedule: Q04DX004 (sc), vehicle: saline): 207 % of control

Nc1nc(/C=C(/O)c2ccccc2)c2ncn(C3OC(CO)C(O)C3O)c2n1 (configuration not stated)
T/C (dose: 50.0 mg/kg/injection, schedule: Q04DX004 (sc), vehicle: distilled water + Tween-80): 52 % of control | T/C (dose: 100.0 mg/kg/injection, schedule: Q04DX004 (sc), vehicle: distilled water + Tween-80): 70 % of control | T/C (dose: 200.0 mg/kg/injection, schedule: Q04DX004 (sc), vehicle: distilled water + Tween-80): 155 % of control | T/C (dose: 400.0 mg/kg/injection, schedule: Q04DX004 (sc), vehicle: distilled water + Tween-80): 80 % of control

CCCCNCCCNCCCNC(=O)c1csc(-c2csc(CCNC(=O)C(NC(=O)C(C)C(O)C(C)NC(=O)C(NC(=O)c3nc(C(CC(N)=O)NCC(N)C(N)=O)nc(N)c3C)C(OC3OC(CO)C(O)C(O)C3OC3OC(CO)C(O)C(OC(N)=O)C3O)c3cnc[nH]3)C(C)O)n2)n1 (configuration not stated)
T/C (dose: 8.0 mg/kg/injection, schedule: Q01DX010 (sc), vehicle: saline): 69 % of control and 83 % of control | T/C (dose: 16.0 mg/kg/injection, schedule: Q01DX010 (sc), vehicle: saline): 76 % of control and 80 % of control | T/C (dose: 32.0 mg/kg/injection, schedule: Q01DX010 (sc), vehicle: saline): 66 % of control and 68 % of control | T/C (dose: 64.0 mg/kg/injection, schedule: Q01DX010 (sc), vehicle: saline): 23 % of control and 25 % of control
